From ChEMBL document CHEMBL5518191, “Camptothecin structure simplification elaborated new imidazo[2,1-b]quinazoline derivative as a human topoisomerase I inhibitor with efficacy against bone cancer cells and colon adenocarcinoma” (Eur J Med Chem, 2024)
pIC50: −log10 of the molar value. Calls of active or inactive are those of the source. The rule behind the calls is not given here.

How the values were obtained:
[1] = molecular target: T1, DNA topoisomerase 1 (Homo sapiens) (UniProt P11387); assay: Inhibition of human DNA topoisomerase 1 at 10 uM using supercoiled DNA as substrate incubated for 30 mins by EtBr staining based agarose gel electrophoresis method relative to control
T1 sequence (whole entry): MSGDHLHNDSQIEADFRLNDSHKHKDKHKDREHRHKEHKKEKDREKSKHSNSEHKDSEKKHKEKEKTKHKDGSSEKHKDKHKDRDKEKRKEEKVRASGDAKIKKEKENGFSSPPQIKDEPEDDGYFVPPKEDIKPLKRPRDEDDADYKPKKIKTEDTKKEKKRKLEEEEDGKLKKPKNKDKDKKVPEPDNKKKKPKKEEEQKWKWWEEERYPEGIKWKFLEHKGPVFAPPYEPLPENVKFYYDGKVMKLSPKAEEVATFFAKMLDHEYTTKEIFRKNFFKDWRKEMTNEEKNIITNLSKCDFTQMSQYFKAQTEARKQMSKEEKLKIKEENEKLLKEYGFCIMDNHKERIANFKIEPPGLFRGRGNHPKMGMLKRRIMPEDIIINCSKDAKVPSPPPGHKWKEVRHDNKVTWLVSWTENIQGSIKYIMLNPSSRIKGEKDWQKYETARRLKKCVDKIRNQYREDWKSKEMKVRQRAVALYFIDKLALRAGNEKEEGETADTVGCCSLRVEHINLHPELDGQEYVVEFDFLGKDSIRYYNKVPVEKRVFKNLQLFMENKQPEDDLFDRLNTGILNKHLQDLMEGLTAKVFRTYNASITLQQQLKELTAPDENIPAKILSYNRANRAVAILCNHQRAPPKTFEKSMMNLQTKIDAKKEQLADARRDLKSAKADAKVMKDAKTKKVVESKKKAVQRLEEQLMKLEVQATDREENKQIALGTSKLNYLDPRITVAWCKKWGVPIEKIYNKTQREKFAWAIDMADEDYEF

[2] = system: MCF7; assay: Cytotoxicity against human MCF7 cells incubated for 48 hrs by MTT assay; format: functional, cell-based; details: MCF7, 48 h
[3] = system: MDA-MB-231; assay: Cytotoxicity against human MDA-MB-231 cells incubated for 48 hrs by MTT assay; format: functional, cell-based; details: MDA-MB-231, 48 h
[4] = system: PC-3; assay: Cytotoxicity against human PC-3 cells incubated for 48 hrs by MTT assay; format: functional, cell-based; details: PC-3, 48 h
[5] = system: HOS; assay: Cytotoxicity against human HOS cells incubated for 48 hrs by MTT assay; format: functional, cell-based
[6] = Cytotoxicity against human BJ cells incubated for 48 hrs by MTT assay; format: toxicity, cell-based
[7] = system: DU-145; assay: Cytotoxicity against human DU-145 cells incubated for 48 hrs by MTT assay; format: functional, cell-based; details: DU-145, 48 h
[8] = system: HCT-116; assay: Cytotoxicity against human HCT-116 cells incubated for 48 hrs by MTT assay; format: functional, cell-based; details: HCT-116, 48 h
[9] = system: SK-OV-3; assay: Cytotoxicity against human SK-OV-3 cells incubated for 48 hrs by MTT assay; format: functional, cell-based; details: SK-OV-3, 48 h
[10] = system: PANC-1; assay: Cytotoxicity against human PANC-1 cells incubated for 48 hrs by MTT assay; format: functional, cell-based; details: PANC-1, 48 h
[11] = system: SAOS-2; assay: Cytotoxicity against human SAOS-2 cells incubated for 48 hrs by MTT assay; format: functional, cell-based; details: SAOS-2, 48 h
[12] = system: MG-63; assay: Cytotoxicity against human MG-63 cells incubated for 48 hrs by MTT assay; format: functional, cell-based; details: for pIC50: Homo sapiens, MG-63, 48 h, read-out: IC50
[13] = Selectivity ratio of IC50 for human BJ cells to IC50 for human HOS cells
[14] = system: HOS; assay: Cytotoxicity against human HOS cells cultured as 3D spheroids incubated for 120 hrs; format: functional, cell-based
[15] = system: HOS; assay: Induction of cell cycle arrest in human HOS cells assessed as accumulation of cells at G0/G1 phase after 48 hrs by flow cytometry analysis (reference value: 52.39 %); format: functional
[16] = system: HOS; assay: Induction of cell cycle arrest in human HOS cells assessed as accumulation of cells at S phase after 48 hrs by flow cytometry analysis (reference value: 32.75 %); format: functional
[17] = system: HOS; assay: Induction of cell cycle arrest in human HOS cells assessed as accumulation of cells at G2/M phase after 48 hrs by flow cytometry analysis (reference value: 14.86 %); format: functional
[18] = system: HOS; assay: Induction of cell cycle arrest in human HOS cells assessed as accumulation of cells at pre-G1 phase after 48 hrs by flow cytometry analysis (reference value: 2.18 %); format: functional
[19] = system: HOS; assay: Induction of apoptosis in human HOS cells assessed as fold increase in p53 gene expression at 1.47 uM incubated for 48 hrs by RT-qPCR analysis relative to positive control; format: functional
[20] = system: HOS; assay: Induction of apoptosis in human HOS cells assessed as early apoptotic cells at 5 uM incubated for 48 hrs by Annexin-V FITC/PI staining based flow cytometry analysis (reference value: 0.46%); format: functional
[21] = system: HOS; assay: Induction of apoptosis in human HOS cells assessed as late apoptotic cells at 5 uM incubated for 48 hrs by Annexin-V FITC/PI staining based flow cytometry analysis (reference value: 0.21%); format: functional
[22] = system: HOS; assay: Induction of apoptosis in human HOS cells assessed as necrotic cells at 5 uM incubated for 48 hrs by Annexin-V FITC/PI staining based flow cytometry analysis (reference value: 1.51%); format: functional
[23] = system: HOS; assay: Induction of apoptosis in human HOS cells assessed as fold increase in BAX gene expression at 1.47 uM incubated for 48 hrs by RT-qPCR analysis relative to positive control; format: functional
[24] = system: HOS; assay: Induction of apoptosis in human HOS cells assessed as fold decrease in BCL-2 gene expression at 1.47 uM incubated for 48 hrs by RT-qPCR analysis relative to positive control; format: functional
[25] = system: HOS; assay: Induction of apoptosis in human HOS cells assessed as fold decrease in Her2 gene expression at 1.47 uM incubated for 48 hrs by RT-qPCR analysis relative to positive control; format: functional
[26] = Acute toxicity in Swiss albino mouse assessed as change in ALT level at 1.47 uM/kg, po administered for 14 days; format: organism-based; details: in vivo, 336 h, time 14 day
[27] = Acute toxicity in Swiss albino mouse assessed as change in AST level at 1.47 uM/kg, po administered for 14 days; format: organism-based; details: in vivo, 336 h, time 14 day
[28] = Acute toxicity in Swiss albino mouse assessed as change in GGT level at 1.47 uM/kg, po administered for 14 days; format: organism-based; details: in vivo, 336 h, time 14 day
[29] = system: C-26; assay: Antitumor activity against mouse C26 cells xenografted in BALB/c mouse assessed as decrease in tumor volume at 250 mg/kg, po after 35 days; format: functional, organism-based; details: time 35.0 day
[30] = Antitumor activity against mouse C26 cells xenografted in BALB/c mouse assessed as decrease in tumor volume at 250 mg/kg, po after 1 week; format: functional, C-26; design: scale not given: the % may be the effect or the level left; details: time 1 weeks
[31] = Antitumor activity against mouse C26 cells xenografted in BALB/c mouse assessed as decrease in tumor volume at 250 mg/kg, po after 5 weeks; format: functional, C-26; design: scale not given: the % may be the effect or the level left
[32] = Acute toxicity in Swiss albino mouse assessed as change in ALT level at 200 mg/kg, po administered for 14 days; format: organism-based; details: in vivo, 336 h, time 14 day
[33] = Acute toxicity in Swiss albino mouse assessed as change in AST level at 200 mg/kg, po administered for 14 days; format: organism-based; details: in vivo, 336 h, time 14 day
[34] = Acute toxicity in Swiss albino mouse assessed as change in GGT level at 200 mg/kg, po administered for 14 days; format: organism-based; details: in vivo, 336 h, time 14 day

SMILES: O=c1c2ccccc2nc2n1c(=O)c1cc3ccccc3c(=O)n12
- inhibition [1]: Active
- pIC50 [2]: < 4.00
- pIC50 [3]: 4.15
- pIC50 [4]: < 4.00
- pIC50 [5]: < 4.00
- IC50 at 48 h [6]: 128 µM

SMILES: COc1cc2nc3n(c(=O)c2cc1OC)c(=O)c1cc2ccccc2c(=O)n13
- inhibition [1]: Active
- pIC50 [2]: < 4.00
- pIC50 [3]: < 4.00
- pIC50 [4]: < 4.00
- pIC50 [5]: < 4.00

SMILES: O=c1/c(=C\c2ccccc2)n2c(=O)c3ccccc3nc2n1CCN1CCOCC1
- inhibition [1]: Active
- pIC50 [2]: 4.25
- pIC50 [3]: 5.22
- pIC50 [4]: < 4.00
- pIC50 [7]: 5.42
- pIC50 [8]: 5.44
- pIC50 [9]: 5.46
- pIC50 [10]: 4.72
- pIC50 [5]: 5.83
- pIC50 [11]: 5.49
- pIC50 [12]: 4.75
- IC50 at 48 h [6]: 4.25 µM
- Ratio IC50 [13]: 2.89
- Activity [14]: Active
- Activity [15]: 61.08%
- Activity [16]: 27.51%
- Activity [17]: 11.41%
- Activity [18]: 39.61%
- fold change (FC) [19]: 4.907
- Activity [20]: 3.22%
- Activity [21]: 23.58%
- Activity [22]: 12.81%
- fold change (FC) [23]: 6.143
- fold change (FC) [24]: 0.146
- fold change (FC) [25]: 0.237
- Activity [26]: 22 U/L
- Activity [27]: 19.5 U/L
- Activity [28]: 10.3 U/L
- Activity [29]: Active
- Activity [30]: 35.5%
- Activity [31]: 75.36%

SMILES: O=C1c2cc3ccccc3c(=O)n2C(=S)N1c1ccccc1
- inhibition [1]: Active
- pIC50 [2]: < 4.00
- pIC50 [3]: < 4.00
- pIC50 [4]: < 4.00
- pIC50 [5]: < 4.00

SMILES: O=C1NC(=S)n2c1cc1ccccc1c2=O
- inhibition [1]: Active
- pIC50 [2]: 4.90
- pIC50 [3]: < 4.00
- pIC50 [4]: < 4.00
- pIC50 [5]: < 4.00
- IC50 at 48 h [6]: 258 µM

SMILES: CC[C@@]1(O)C(=O)OCc2c1cc1n(c2=O)Cc2cc3ccccc3nc2-1 [CAMPTOTHECIN]
- pIC50 [2]: 6.49
- pIC50 [3]: 6.97
- pIC50 [4]: 6.63
- pIC50 [7]: 7.38
- pIC50 [8]: 7.29
- pIC50 [9]: 6.62
- pIC50 [10]: 6.63
- pIC50 [5]: 7.31
- pIC50 [11]: 7.26
- pIC50 [12]: 7.34

SMILES: COc1cccc2c1C(=O)c1c(O)c3c(c(O)c1C2=O)C[C@@](O)(C(=O)CO)C[C@@H]3O[C@H]1C[C@H](N)[C@H](O)[C@H](C)O1 [DOXORUBICIN]
- pIC50 [2]: 8.00
- pIC50 [3]: 5.94
- pIC50 [4]: 6.25
- pIC50 [7]: 7.14
- pIC50 [9]: 7.48
- pIC50 [10]: 7.07
- pIC50 [5]: 7.52
- pIC50 [11]: 6.84
- IC50 ([12]; mg-63): Not Active
- Activity [32]: 60 U/L
- Activity [33]: 31 U/L
- Activity [34]: 13.7 U/L
